Publication PMC8574161 (Journal of chemical information and modeling, 2021)
“And” between values parts separate entries of the source, which are not always exact repeats. Equal entries are not always repeated. Structures can show the parent of a compound that is named as a salt. Where two headings read alike, the source gives them in different places.

What was measured:
[1] = tested on: SARS-CoV-2; settings: compared with CC50
[2] = in vitro; settings: human
[3] = tested on: SARS-CoV-2; assay: microbe, parasite or virus in culture
[4] = tested on: SARS-CoV-2 (isolate USA WA1/2020); assay: microbe, parasite or virus in culture; format: cell-based; settings: Severe acute respiratory syndrome coronavirus 2, Calu-3, 48 h
[5] = Vero 76 cytotoxicity in uninfected toxicity cultures; settings: African green monkey, CC50, Vero 76
[6] = tested on: SARS-CoV-2; settings: Vero E6 cells; cited from earlier work
[7] = tested on: SARS-CoV-2; assay: Vero 76 reduction of virus-induced cytopathic effect; format: cell-based; settings: Severe acute respiratory syndrome coronavirus 2, Vero 76, Vero 76
[8] = Calu3 toxicity; format: cell-based; settings: human, Calu3 cells infected with SARS-CoV-2
[9] = target: SARS-CoV-2 Spike RBD protein (Severe acute respiratory syndrome coronavirus 2, UniProt P0DTC2); assay: Microscale thermophoresis binding to Spike RBD; settings: MST, 5 nM labeled Spike RBD, 23°C, quadruplicate
[10] = tested on: SARS-CoV-2; settings: Calu-3 cells; cited from earlier work
[11] = tested on: SARS-CoV-2; settings: Vero cells; cited from earlier work
[12] = Severe acute respiratory syndrome coronavirus 2, Caco-2, 72 h
[13] = Neutral Red (Cytopathic effect/Toxicity)
[14] = Visual (Cytopathic effect/Toxicity)

For `CCCC1O[C@@H]2C[C@H]3[C@@H]4CCC5=CC(=O)C=C[C@]5(C)[C@H]4[C@@H](O)C[C@]3(C)[C@]2(C(=O)CO)O1` (some centres unmarked) [Budesonide], the “activity against SARS-CoV-2 in Caco-2 cells (in words)” value [1] was “no activity”, the CC50 at 3 days [2] was 10 µM and the EC90 [3, 12] was > 10 µM.

In the case of `COc1cc2c(cc1OC)C1CC(=O)C(CC(C)C)CN1CC2` (centres unmarked) [Tetrabenazine], the “activity against SARS-CoV-2 in Caco-2 cells (in words)” value [1] is reported as “inactive”, the CC50 at 3 days [2] is reported as > 100 µM and the EC90 ([3]; Severe acute respiratory syndrome coronavirus 2, Caco-2) is reported as > 100 µM.

In the case of `CCCCN(CCCC)CC(O)c1cc(Cl)cc2c1-c1ccc(Cl)cc1/C2=C/c1ccc(Cl)cc1` (centres unmarked) [Lumefantrine], the IC50 [4] is reported as > 20 µM, the CC50 at 3 days [2] is reported as 10 µM and the CC50 [5, 13] is reported as 177 µM. The CC50 [5, 14] was > 60 µM, the EC90 [3, 12] was 10 µM and the EC50 [6] was 23.2 µM. For the same compound, the EC50 [7, 13] was 54 µM, the EC50 [7, 14] was > 60 µM and the CC50 at 48 h [8] was > 20 µM. For the same compound, the Kd [9] was 0.259 µM and ~0.25 µM.

In the case of `C[C@H]1[C@H](OC(=O)CCC(=O)O)O[C@@H]2O[C@@]3(C)CC[C@H]4[C@H](C)CC[C@@H]1[C@@]24OO3` [Artesunate], the IC50 [10] is given as 1.76 µM.

For `Cc1cn(-c2cc(NC(=O)c3ccc(C)c(Nc4nccc(-c5cccnc5)n4)c3)cc(C(F)(F)F)c2)cn1` [Nilotinib], the potency [11] is listed as “sub-micromolar”.

For `C=C[C@]1(C)C[C@@H](OC(=O)CSCCN(CC)CC)[C@]2(C)[C@H](C)CC[C@]3(CCC(=O)[C@H]32)[C@@H](C)[C@@H]1O` [Tiamulin fumarate], the CC50 at 3 days [2] was > 100 µM and the EC90 [3, 12] was 65 µM.
